Among the data in ChEMBL document CHEMBL3991601, “The target landscape of clinical kinase drugs” (Science, 2017) are Kd values, retold here.

Each structure is given as a SMILES string. The source made the active and inactive calls. Where only a bound is given, the exact number is not on record here.

For assay [1], the target named is Serine/threonine-protein kinase/endoribonuclease IRE1 (Homo sapiens, UniProt O75460).
Assay [2] deals with T1, Ras-related protein Rab-10 (Homo sapiens, UniProt P61026).
T1 sequence (P61026 whole entry): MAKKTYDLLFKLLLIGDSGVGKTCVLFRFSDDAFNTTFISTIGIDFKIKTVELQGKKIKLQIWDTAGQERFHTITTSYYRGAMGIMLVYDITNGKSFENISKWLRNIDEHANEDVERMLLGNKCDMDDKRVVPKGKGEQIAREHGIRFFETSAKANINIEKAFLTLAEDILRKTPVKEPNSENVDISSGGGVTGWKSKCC

Assay [3] has as its target T2, Cytochrome c1, heme protein, mitochondrial (Homo sapiens, UniProt P08574).
T2 sequence (P08574 whole entry): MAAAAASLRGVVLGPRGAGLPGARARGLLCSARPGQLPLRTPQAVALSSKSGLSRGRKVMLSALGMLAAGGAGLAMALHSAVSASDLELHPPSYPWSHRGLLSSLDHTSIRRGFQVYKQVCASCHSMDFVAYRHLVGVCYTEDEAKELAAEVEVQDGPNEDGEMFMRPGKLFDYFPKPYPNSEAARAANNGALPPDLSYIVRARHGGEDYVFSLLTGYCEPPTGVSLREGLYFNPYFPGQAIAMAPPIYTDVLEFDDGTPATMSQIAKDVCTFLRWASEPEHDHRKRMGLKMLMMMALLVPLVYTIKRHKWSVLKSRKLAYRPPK

Assay [4] addresses Tyrosine-protein kinase FRK (Homo sapiens, UniProt P42685).
In assay [5] the target is T3, Discoidin domain-containing receptor 2 (Homo sapiens, UniProt Q16832).
T3 sequence (Q16832 whole entry): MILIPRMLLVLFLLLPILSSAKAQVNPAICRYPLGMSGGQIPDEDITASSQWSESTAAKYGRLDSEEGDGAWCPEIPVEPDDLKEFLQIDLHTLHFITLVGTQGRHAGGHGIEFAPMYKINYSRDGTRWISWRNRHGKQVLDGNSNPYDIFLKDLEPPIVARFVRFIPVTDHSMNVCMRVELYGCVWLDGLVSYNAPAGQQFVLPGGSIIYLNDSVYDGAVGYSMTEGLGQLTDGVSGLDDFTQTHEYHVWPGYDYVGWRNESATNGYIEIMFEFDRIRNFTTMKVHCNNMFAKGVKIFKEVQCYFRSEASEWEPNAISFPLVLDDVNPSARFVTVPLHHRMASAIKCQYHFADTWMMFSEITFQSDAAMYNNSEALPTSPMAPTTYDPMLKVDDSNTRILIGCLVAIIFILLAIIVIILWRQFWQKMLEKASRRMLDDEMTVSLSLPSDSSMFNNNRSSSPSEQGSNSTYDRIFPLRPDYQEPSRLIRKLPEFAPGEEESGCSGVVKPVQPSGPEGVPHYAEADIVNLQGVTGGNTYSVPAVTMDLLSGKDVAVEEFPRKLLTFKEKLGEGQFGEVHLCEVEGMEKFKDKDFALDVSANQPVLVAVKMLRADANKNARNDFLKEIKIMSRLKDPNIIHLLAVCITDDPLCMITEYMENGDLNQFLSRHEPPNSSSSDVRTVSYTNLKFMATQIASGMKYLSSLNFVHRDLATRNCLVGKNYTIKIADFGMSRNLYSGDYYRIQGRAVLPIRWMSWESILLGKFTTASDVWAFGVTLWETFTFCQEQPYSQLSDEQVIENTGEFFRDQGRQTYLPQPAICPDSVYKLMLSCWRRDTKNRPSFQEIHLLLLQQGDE

The target in assay [6] is Cyclin-dependent kinase 4 (Homo sapiens, UniProt P11802).
Cyclin-dependent kinase 4, sequence (P11802 whole entry): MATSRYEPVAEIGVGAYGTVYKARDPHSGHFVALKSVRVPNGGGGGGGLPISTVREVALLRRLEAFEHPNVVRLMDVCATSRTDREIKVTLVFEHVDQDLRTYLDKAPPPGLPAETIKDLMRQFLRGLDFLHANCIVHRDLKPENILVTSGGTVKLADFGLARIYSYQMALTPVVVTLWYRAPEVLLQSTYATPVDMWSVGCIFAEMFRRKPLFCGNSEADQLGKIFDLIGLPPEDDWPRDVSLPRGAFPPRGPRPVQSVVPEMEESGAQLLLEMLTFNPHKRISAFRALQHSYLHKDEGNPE
For another assay, the target named is T4, Heme oxygenase 2 (Homo sapiens, UniProt P30519).
T4 sequence (P30519 whole entry): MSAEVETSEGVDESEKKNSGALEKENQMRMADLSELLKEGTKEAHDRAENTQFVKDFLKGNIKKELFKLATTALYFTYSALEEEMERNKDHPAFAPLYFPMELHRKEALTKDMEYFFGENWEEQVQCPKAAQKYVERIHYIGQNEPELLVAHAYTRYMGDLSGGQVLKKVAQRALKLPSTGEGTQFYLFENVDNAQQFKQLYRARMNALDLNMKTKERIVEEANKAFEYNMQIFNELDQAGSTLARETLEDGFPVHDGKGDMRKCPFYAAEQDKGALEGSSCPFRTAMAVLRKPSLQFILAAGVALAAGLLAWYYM

Assay [7] has as its target cAMP-dependent protein kinase catalytic subunit beta (Homo sapiens, UniProt P22694).
Also: in the data inactive means no Kd found up to 30 µM.

Tyrosine-protein kinase FRK, sequence (P42685 whole entry, the tested form may be a part): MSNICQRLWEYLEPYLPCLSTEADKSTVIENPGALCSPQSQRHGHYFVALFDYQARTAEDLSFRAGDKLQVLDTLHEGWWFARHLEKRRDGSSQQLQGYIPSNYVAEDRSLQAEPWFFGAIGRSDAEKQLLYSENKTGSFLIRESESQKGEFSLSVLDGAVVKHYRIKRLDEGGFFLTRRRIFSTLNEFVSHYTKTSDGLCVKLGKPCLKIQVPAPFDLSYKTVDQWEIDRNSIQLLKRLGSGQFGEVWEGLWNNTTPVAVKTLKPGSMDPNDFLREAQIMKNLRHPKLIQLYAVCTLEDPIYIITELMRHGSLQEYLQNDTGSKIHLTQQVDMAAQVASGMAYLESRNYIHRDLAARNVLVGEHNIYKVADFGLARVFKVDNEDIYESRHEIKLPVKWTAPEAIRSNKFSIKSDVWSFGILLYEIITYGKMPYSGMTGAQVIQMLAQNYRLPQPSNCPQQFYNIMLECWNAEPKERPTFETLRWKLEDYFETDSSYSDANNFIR
Serine/threonine-protein kinase/endoribonuclease IRE1, sequence (O75460 whole entry): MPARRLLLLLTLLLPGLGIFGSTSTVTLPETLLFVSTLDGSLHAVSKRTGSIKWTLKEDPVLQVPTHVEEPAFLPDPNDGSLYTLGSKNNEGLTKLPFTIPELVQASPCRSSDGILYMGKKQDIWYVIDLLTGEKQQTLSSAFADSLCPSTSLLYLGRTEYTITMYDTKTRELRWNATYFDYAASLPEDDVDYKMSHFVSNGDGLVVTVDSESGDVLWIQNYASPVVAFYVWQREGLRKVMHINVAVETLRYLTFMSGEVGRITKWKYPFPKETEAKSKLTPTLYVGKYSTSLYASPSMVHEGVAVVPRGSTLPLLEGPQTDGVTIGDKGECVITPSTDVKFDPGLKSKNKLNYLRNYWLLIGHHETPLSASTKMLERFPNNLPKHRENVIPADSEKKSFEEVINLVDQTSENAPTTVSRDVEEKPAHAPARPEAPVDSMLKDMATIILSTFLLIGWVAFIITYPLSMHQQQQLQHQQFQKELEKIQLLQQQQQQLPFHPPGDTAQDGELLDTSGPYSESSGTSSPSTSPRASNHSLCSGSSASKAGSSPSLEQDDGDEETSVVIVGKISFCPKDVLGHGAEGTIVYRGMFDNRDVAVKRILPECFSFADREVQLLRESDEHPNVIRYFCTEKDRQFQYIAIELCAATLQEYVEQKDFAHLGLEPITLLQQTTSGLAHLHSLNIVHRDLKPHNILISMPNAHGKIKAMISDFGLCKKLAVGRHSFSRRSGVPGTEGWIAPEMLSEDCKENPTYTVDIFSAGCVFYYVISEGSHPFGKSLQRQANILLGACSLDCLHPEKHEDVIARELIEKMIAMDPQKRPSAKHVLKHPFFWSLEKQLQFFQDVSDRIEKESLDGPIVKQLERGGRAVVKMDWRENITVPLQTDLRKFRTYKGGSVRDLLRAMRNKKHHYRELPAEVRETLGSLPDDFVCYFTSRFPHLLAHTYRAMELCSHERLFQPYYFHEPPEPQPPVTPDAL

Usually Kd stands for the constant that tells how readily two partners part at equilibrium. As for `S=C(NCc1ccc2c(c1)OCO2)N1CCN(c2ncnc3c2oc2ccccc23)CC1` [AMUVATINIB], the Kd in assay [1], in assay [2], in assay [3], in assay [4], in assay [5] and in assay [6] was > 30 µM (inactive) each time. Further, the Kd (at Heme oxygenase 2; in assay [7]) was > 30 µM (inactive) in each case.
On to `O[C@H]1CC[C@H](Nc2ncc3nc(Nc4c(F)cc(F)cc4F)n([C@H]4CCOC4)c3n2)CC1` [TANZISERTIB], for which the Kd in assay [1] was 1.36 µM (active); in assay [2], > 30 µM (inactive); in assay [3], > 30 µM (inactive); in assay [4], > 30 µM (inactive); in assay [5], > 30 µM (inactive); in assay [6], > 30 µM (inactive). The Kd (on Heme oxygenase 2; in assay [7]) was > 30 µM (inactive) in each case.
Regarding `COc1cccc2cc(-c3nc([C@H]4CC[C@H](C(=O)O)CC4)n4ncnc(N)c34)[nH]c12` [OSI-027], the Kd in assay [1], in assay [2], in assay [3], in assay [4], in assay [5] and in assay [6] was > 30 µM (inactive) throughout. For the same compound, the Kd (at Heme oxygenase 2; in assay [7]) was > 30 µM (inactive) each time.
Consider `Cn1c(=O)n(-c2ccc(C(C)(C)C#N)cc2)c2c3cc(-c4cnc5ccccc5c4)ccc3ncc21` [DACTOLISIB], for which the Kd (in assay [1]; in assay [2]; in assay [3]; in assay [4]; in assay [6]; at Heme oxygenase 2) was > 30 µM (inactive) in each case. Further, the Kd in assay [7] was > 30 µM (inactive).
On to `C[C@@]1(C(=O)Nc2ccc(F)nc2)CCCN1c1nc(Nc2cc(C3CC3)n[nH]2)c2cccn2n1` [BMS-754807], for which the Kd (in assay [2]; in assay [3]; at Heme oxygenase 2) was > 30 µM (inactive) each time.
As to `CN(c1ncccc1CNc1nc(Nc2ccc3c(c2)CC(=O)N3)ncc1C(F)(F)F)S(C)(=O)=O` [PF-00562271], the Kd (in assay [1]; in assay [2]; in assay [3]; in assay [5]; in assay [6]; on Heme oxygenase 2) was > 30 µM (inactive) in each case. Besides, in assay [7], the Kd was > 30 µM (inactive).
Turning to `N#CCNC(=O)c1ccc(-c2ccnc(Nc3ccc(N4CCOCC4)cc3)n2)cc1` [MOMELOTINIB], the Kd (in assay [1]; in assay [3]; in assay [4]; in assay [5]; in assay [6]; at Heme oxygenase 2) was > 30 µM (inactive) throughout. In addition, the Kd in assay [7] is > 30 µM (inactive).
Regarding `COc1cc2c(Oc3ccc4[nH]c(C)cc4c3F)ncnc2cc1OCCCN1CCCC1` [CEDIRANIB], the Kd (in assay [2]; in assay [3]; at Heme oxygenase 2) was > 30 µM (inactive) throughout.
With `CCN1CCN(Cc2ccc(Nc3ncc(F)c(-c4cc(F)c5nc(C)n(C(C)C)c5c4)n3)nc2)CC1` [ABEMACICLIB], the Kd (in assay [1]; in assay [2]; in assay [3]; in assay [4]; in assay [5]; at Heme oxygenase 2) was > 30 µM (inactive) in each case. Moreover, the Kd in assay [7] was > 30 µM (inactive).
Take `Cn1cnc2c(F)c(Nc3ccc(Br)cc3Cl)c(C(=O)NOCCO)cc21` [SELUMETINIB]: the Kd (in assay [2]; in assay [3]; on Heme oxygenase 2) was > 30 µM (inactive) in each case.
Turning to `COc1cc2c(N3CCN(C(=O)Nc4ccc(OC(C)C)cc4)CC3)ncnc2cc1OCCCN1CCCCC1` [TANDUTINIB], the Kd in assay [2] and in assay [3] was > 30 µM (inactive) throughout.
In the case of `CC1(C)CNc2cc(NC(=O)c3cccnc3NCc3ccncc3)ccc21` [MOTESANIB], the Kd (in assay [2]; in assay [3]; on Heme oxygenase 2) was > 30 µM (inactive) each time.
Regarding `CN(C)C/C=C/C(=O)Nc1cc2c(Nc3ccc(F)c(Cl)c3)ncnc2cc1O[C@H]1CCOC1` [AFATINIB], the Kd (in assay [2]; in assay [3]; at Heme oxygenase 2) was > 30 µM (inactive) in each case.
In the case of `CCOc1ccn(-c2ccc(F)cc2)c(=O)c1C(=O)Nc1ccc(Oc2ccnc(N)c2Cl)c(F)c1` [BMS-777607], the Kd was > 30 µM (inactive) in assay [1]; > 30 µM (inactive) in assay [3]; 0.33 µM (active) in assay [4]; 0.065 µM (active) in assay [5]; > 30 µM (inactive) in assay [6]; > 30 µM (inactive) on Heme oxygenase 2. Further, the Kd in assay [7] is > 30 µM (inactive).
For the compound `C=CC(=O)Nc1cccc(Nc2nc(Nc3ccc(N4CCN(C(C)=O)CC4)cc3OC)ncc2C(F)(F)F)c1` [ROCILETINIB], the Kd in assay [1], in assay [2], in assay [3], in assay [4], in assay [5] and in assay [6] was > 30 µM (inactive) each time. For the same compound, the Kd on Heme oxygenase 2 is > 30 µM (inactive).
As to `COc1cc2ncnc(Nc3ccc(F)c(Cl)c3)c2cc1NC(=O)/C=C/CN1CCCCC1` [DACOMITINIB ANHYDROUS], the Kd (in assay [1]; in assay [3]; in assay [4]; in assay [5]; in assay [6]; on Heme oxygenase 2) was > 30 µM (inactive) each time. The Kd in assay [7] is > 30 µM (inactive).
For the compound `O=S(=O)(c1cccc2cnccc12)N1CCCNCC1` [FASUDIL], the Kd in assay [1], in assay [2], in assay [3], in assay [4], in assay [5] and in assay [6] was > 30 µM (inactive) in each case. The Kd at Heme oxygenase 2 was > 30 µM (inactive).
In the case of `C[C@]1(O)C[C@@H](c2nc(-c3ccc4ccc(-c5ccccc5)nc4c3)c3c(N)nccn32)C1` [LINSITINIB], the Kd (in assay [1]; in assay [2]; in assay [3]; in assay [5]; in assay [6]; at Heme oxygenase 2) was > 30 µM (inactive) each time. In assay [7], the Kd was > 30 µM (inactive).
Take `CC(C)CC(=O)Nc1[nH]nc2c1CN(C(=O)C1CCN(C)CC1)C2(C)C` [PHA-793887]: the Kd in assay [1], in assay [2], in assay [3], in assay [4], in assay [5] and in assay [6] was > 30 µM (inactive) throughout. Moreover, the Kd in assay [7] was > 30 µM (inactive).
